Patent EP0195496A2, “Use of xanthines in the treatment of proliferative skin disease” (BEECHAM GROUP PLC, priority 1985, dated 1986)
pKi: −log10 of the molar value.

target: cyclic AMP phosphodierterase; experiment: cyclic AMP phosphodiesterase activity in rat gastrocnemius muscle homogenates (Dixon plot); type: biochemical; settings: compounds of formula (I); homogenates of rat gastocnemius muscle; 0.31 uM cyclic AMP as substrate; Dixon plot extrapolation; read-out: Apparent Ki value.
Experimental: The activity of cyclic AMP phosphodierterase in homogenates of rat gastocnemius muscle was measured in the presence of various concentrations of compounds of formulae (I), (II), (III), (IV) or (V) using 0.31 uM cyclic AMP as substration. The reciprocal of the reaction rate was plotted on the y axis against the concentration of each compound on the x axis (Dixon plot). The apparent Ki value was estimated by extrapolating the steeper linear portion of the Dixon plot to the x axis and obtaining the negative intercept on the x axis.

pKi	Structure (SMILES)
4.61	CCCCn1c(=O)c2c(ncn2C(C)C(C)=O)n(CC)c1=O (centres unmarked)
4.52	CCCCn1c(=O)c2c(ncn2C(C)C(C)=O)n(CCCC)c1=O (centres unmarked)
4.76	CCCCn1c(=O)c2c(ncn2C(C)CC(C)=O)n(CCCC)c1=O (centres unmarked)
5.21	CC(=O)Cn1cnc2c1c(=O)n(C(C)C)c(=O)n2C(C)C [1,3-di-iso-propyl-7-(2-oxopropyl) xanthine]
4.57	CCCn1c(=O)c2c(ncn2CCC(C)=O)n(CCC)c1=O [formula (I) R^1=C3H7 R^2=C3H7 X=-(CH2)2-]
4.92	CCCCn1c(=O)c2c(ncn2CCC(C)=O)n(CC)c1=O [formula (I) R^1=C4H9 R^2=C2H5 X=-(CH2)2-, 1-n-butyl 3-ethyl-7-(3-oxobutyl) xanthine]
4.68	CCCCn1c(=O)c2c(ncn2CC(C)=O)n(CC)c1=O [formula (I) R^1=C4H9 R^2=C2H5 X=-CH2-]
5.70	CCCCn1c(=O)c2c(ncn2CC(C)=O)n(CCC)c1=O [formula (I) R^1=C4H9 R^2=C3H7 X=-CH2-, 1-n-butyl 3-n-propyl-7-(2-oxopropyl) xanthine]
4.60	CCCCn1c(=O)c2c(ncn2CCC(C)=O)n(CCCC)c1=O [formula (I) R^1=C4H9 R^2=C4H9 X=-(CH2)2-, 1,3-di-n-butyl-7-(3-oxobutyl) xanthine]
4.41	CCCCn1c(=O)c2c(ncn2CCCC(C)=O)n(CCCC)c1=O [formula (I) R^1=C4H9 R^2=C4H9 X=-(CH2)3-]
4.85	CCCCn1c(=O)c2c(ncn2CCCCC(C)=O)n(CCCC)c1=O [formula (I) R^1=C4H9 R^2=C4H9 X=-(CH2)4-, 1,3-di-n-butyl-7-(5-oxohexyl)xanthine]
5.48	CCCCn1c(=O)c2c(ncn2CC(C)=O)n(CCCC)c1=O [formula (I) R^1=C4H9 R^2=C4H9 X=-CH2-, 1,3-di-n-butyl-7-(2-oxopropyl) xanthine]

same assay, conditions: compounds of formula (II); homogenates of rat gastocnemius muscle; 0.31 uM cyclic AMP as substrate; Dixon plot extrapolation; read-out: Apparent Ki Value

pKi	Structure (SMILES)
4.39	CCCCn1c(=S)c2c(ncn2CC(C)=O)n(CC)c1=O
4.64	CCCCn1c(=S)c2c(ncn2CCC(C)=O)n(CC)c1=O
5.60	CCCCn1c(=O)c2c(ncn2CC(C)=O)n(CCCC)c1=S [1,3-di-n-butyl-7-(2-oxopropyl)-2-thioxanthine]

same assay, conditions: compounds of formula (III); homogenates of rat gastocnemius muscle; 0.31 uM cyclic AMP as substrate; Dixon plot extrapolation; read-out: Apparent Ki value

pKi	Structure (SMILES)
4.14	CCn1c(=O)c2c(ncn2CC2(C)OCCO2)n(CC)c1=O
4.35	CCCCn1c(=O)c2c(ncn2CC2(C)OCCO2)n(CC)c1=O
4.57	CCCCn1c(=O)c2c(ncn2CC(C)(OC)OC)n(CCCC)c1=O [1,3-di-n-butylxanthin-7-yl propan-2-one, dimethyl ketal]
4.54	CCCCn1c(=O)c2c(ncn2CC2(C)OCCO2)n(CCCC)c1=O [2-methyl-2-[(1,3-di-n-butylxanthin-7-yl)methyl]-1,3-di oxolane]

same assay, conditions: compounds of formula (V); homogenates of rat gastocnemius muscle; 0.31 uM cyclic AMP as substrate; Dixon plot extrapolation; read-out: Apparent Ki value

pKi	Structure (SMILES)
5.41	CCCCn1c(=O)n(CCCCC(C)=O)c(=O)c2c1ncn2CC(C)=O [formula (V) R^12=C4H9, 1-(5-oxohexyl)-3-n-butyl-7-(2-oxopropyl) xanthine]
